Source: US20130089603A1, “COMPOSITIONS AND METHODS FOR TREATING OBESITY AND OBESITY-RELATED CONDITIONS” (CHELATEXX LLC, priority 2006, published 2013)
Like-named read-outs stand apart in the source and are kept apart here.

What was measured:
pancreatic lipase = biological target: T1, pancreatic lipase (Homo sapiens, UniProt P16233); experiment: in vitro testing of lipase inhibitor effectiveness in presence of activated charcoal; type: biochemical; conditions: 60 mg of orlistat with simethicone and 400 mg of porous activated charcoal (not enteric-coated)
T1 sequence (P16233 17-465): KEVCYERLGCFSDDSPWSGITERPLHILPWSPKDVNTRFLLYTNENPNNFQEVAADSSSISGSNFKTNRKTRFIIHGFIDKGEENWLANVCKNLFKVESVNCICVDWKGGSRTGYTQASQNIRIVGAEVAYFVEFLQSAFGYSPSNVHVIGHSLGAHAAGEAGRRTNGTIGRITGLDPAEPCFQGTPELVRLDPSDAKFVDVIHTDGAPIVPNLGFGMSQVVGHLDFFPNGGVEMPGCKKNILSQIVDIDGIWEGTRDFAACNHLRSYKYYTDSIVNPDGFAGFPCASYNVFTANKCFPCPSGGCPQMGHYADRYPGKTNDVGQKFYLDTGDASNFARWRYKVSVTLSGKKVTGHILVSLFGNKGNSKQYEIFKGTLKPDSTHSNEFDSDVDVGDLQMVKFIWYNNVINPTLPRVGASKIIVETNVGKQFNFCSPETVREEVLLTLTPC
From the text: While the embodiment described in the preceding paragraph has been proven effective in preventing Underwear Issues associated with lipase inhibitors, in vitro testing has shown that the effectiveness of the lipase inhibitor is decreased due to the fact that some of the lipase inhibitor is absorbed by the activated charcoal and is therefore not available for binding to pancreatic lipase. […] Rather, the pharmaceutical composition may be configured such that the lipase inhibitor and surfactant are released in the stomach, and the activated charcoal is not released until the small intestine. By doing so, the lipase inhibitor becomes irreversibly bound to the pancreatic lipase enzyme (about 25%) in the very first 10 centimeters of the small intestines (the duodenum), prior to release of the activated charcoal, thus ensuring that the activated charcoal will not interfere with the ability of the lipase inhibitor to inactivate pancreatic lipase. For this reason, the activated charcoal in some embodiments of the compositions and methods herein is enteric-coated in order to maintain the full efficacy of the lipase inhibitor. […] Therefore, by using an enteric coated porous activated charcoal, the small undigested fat, emulsified in the chyme by actions of the emulsifying agent, can be chelated by the released porous activated charcoal in the distal small bowel.

[1] = clinical trials on over 2800 patients for one or two years; cited from earlier work
[2] = cited from earlier work
[3] = cited from earlier work; remark: listed apart in the source
[4] = cited from earlier work; remark: listed apart in the source

CCCCCCCCCCC[C@@H](C[C@@H]1OC(=O)[C@H]1CCCCCC)OC(=O)[C@H](CC(C)C)NC=O [orlistat, tetrahydrolipstatin]
decrease in the effectiveness of the orlistat (pancreatic lipase): 30% | Abdominal pain/discomfort (upper gastrointestinal adverse event) [1]: 25.5% | Fatty/Oily stool (lower gastrointestinal adverse event) [1]: 26.0% | Fecal incontinence (lower gastrointestinal adverse event) [1]: 7.7% | Fecal urgency (lower gastrointestinal adverse event) [1]: 22.1% | Flatus - with discharge (lower gastrointestinal adverse event) [1]: 23.9% | Increased defecation (lower gastrointestinal adverse event) [1]: 10.8% | Nausea (upper gastrointestinal adverse event) [1]: 8.1% | Oily Evacuation (lower gastrointestinal adverse event) [1]: 11.9% | Oily Spotting (lower gastrointestinal adverse event) [1]: 26.6% | study participants with adverse events ([2]; 60 mg of orlistat): 89.1% | study participants with adverse events ([2]; 120 mg of orlistat): 91.4% | ingested fat whose digestion and absorption is prevented ([3]; 60 mg dose of orlistat (OTC)): 25% | ingested fat whose digestion and absorption is prevented ([3]; 120 mg dose of orlistat (prescription)): 30% | ingested fat whose digestion and absorption is prevented ([3]; dose not stated): 25-35% | individuals reporting orlistat adverse events ([4]; normal (25 grams of fat/meal) US diet): over 90% | individuals reporting orlistat adverse events ([4]; rigid low fat diet): over 50%
